Target: human PDE10A2 (Homo sapiens (Human), UniProt Q9Y233)
Experiment: PDE10 fluorescence polarization (IMAP FP) inhibition assay
Type: biochemical
Settings: apparent inhibition constant, FAM-labeled cAMP substrate 50 nM, room temperature
Outline: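 Cytoplasmic lysate of AD293 cells transiently expressing human PDE10A2, enzyme preincubated 60 min at room temperature with compounds (1% DMSO), then 50 nM FAM-cAMP added for 60 min. Buffer 10 mM Tris HCl pH 7.2, 10 mM MgCl2, 1 mM DTT; IMAP binding reagent stop, FP read after ≥1 h.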

Chain of human PDE10A2 (Q9Y233 267-1055): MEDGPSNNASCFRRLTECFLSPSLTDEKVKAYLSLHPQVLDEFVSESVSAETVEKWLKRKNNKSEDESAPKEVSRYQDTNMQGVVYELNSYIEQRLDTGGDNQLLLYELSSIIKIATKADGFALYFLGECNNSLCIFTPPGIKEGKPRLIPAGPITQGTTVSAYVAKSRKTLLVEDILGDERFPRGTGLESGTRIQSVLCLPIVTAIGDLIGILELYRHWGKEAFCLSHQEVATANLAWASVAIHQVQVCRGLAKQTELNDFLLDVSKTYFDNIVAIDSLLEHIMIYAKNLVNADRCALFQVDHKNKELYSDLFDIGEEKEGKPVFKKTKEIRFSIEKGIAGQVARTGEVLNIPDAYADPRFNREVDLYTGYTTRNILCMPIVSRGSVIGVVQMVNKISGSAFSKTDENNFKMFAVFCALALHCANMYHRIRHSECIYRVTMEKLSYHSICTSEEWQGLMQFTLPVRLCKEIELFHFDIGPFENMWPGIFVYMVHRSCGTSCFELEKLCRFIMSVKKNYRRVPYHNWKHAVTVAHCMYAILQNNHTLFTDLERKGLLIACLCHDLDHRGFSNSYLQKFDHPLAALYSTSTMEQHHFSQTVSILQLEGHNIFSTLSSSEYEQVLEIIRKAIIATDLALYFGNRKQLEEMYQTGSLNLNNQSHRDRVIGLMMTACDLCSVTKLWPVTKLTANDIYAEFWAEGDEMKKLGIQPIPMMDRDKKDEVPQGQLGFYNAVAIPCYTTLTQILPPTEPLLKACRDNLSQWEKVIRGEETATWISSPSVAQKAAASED

Compound | Ki [nM]
Cc1noc(COc2nc(N3CC(c4nc5ccccc5n4C)C3)cc(-n3nc(C)nc3C)n2)n1 [Example 75, 5-(((4-(3,5-dimethyl-1H-1,2,4-triazol-1-yl)-6-(3-(1-methyl-1H-benzo[d]imidazol-2-yl)azetidin-1-yl)pyrimidin-2-yl)oxy)methyl)-3-methyl-1,2,4-oxadiazole] | 0.7
Cc1nc(C)n(-c2cc(N3CC(c4nc5ccccc5n4C)C3)nc(-n3cccn3)n2)n1 [Example 76, 2-(1-(6-(3,5-dimethyl-1H-1,2,4-triazol-1-yl)-2-(1H-pyrazol-1-yl)pyrimidin-4-yl)azetidin-3-yl)-1-methyl-1H-benzo[d]imidazole] | 0.61
Cc1nc(C)n(-c2cc(N3CC(c4nc5ccccc5n4C)C3)nc(-n3ccnc3C)n2)n1 [Example 77, 2-(1-(6-(3,5-dimethyl-1H-1,2,4-triazol-1-yl)-2-(2-methyl-1H-imidazol-1-yl)pyrimidin-4-yl)azetidin-3-yl)-1-methyl-1H-benzo[d]imidazole] | 0.26
Cc1nc(C)n(-c2cc(N3CC(c4nc5ccccc5n4C)C3)nc(N3CCCC3)n2)n1 [Example 78, 2-{1-[6-(3,5-dimethyl-1H-1,2,4-triazol-1-yl)-2-(pyrrolidin-1-yl)pyrimidin-4-yl]azetidin-3-yl}-1-methyl-1H-benzimidazole] | 0.29
Cc1nc(C)n(-c2cc(N3CC(c4nc5ccccc5n4C)C3)nc(C#N)n2)n1 [Example 79, 4-(3,5-dimethyl-1H-1,2,4-triazol-1-yl)-6-[3-(1-methyl-1H-benzimidazol-2-yl)azetidin-1-yl]pyrimidine-2-carbonitrile] | 0.28
Cc1nc(-c2cccnc2C)cc(N2CC(c3nc4ccccc4n3C)C2)n1 [Example 80, 1-Methyl-2-(1-(2-methyl-6-(2-methylpyridin-3-yl)pyrimidin-4-yl)azetidin-3-yl)-1H-benzo[d]imidazole] | > 100
Cc1nc(-c2cccnc2)cc(N2CC(c3nc4ccccc4n3C)C2)n1 [Example 81, 1-methyl-2-(1-(2-methyl-6-(pyridin-3-yl)pyrimidin-4-yl)azetidin-3-yl)-1H-benzo[d]imidazole] | 76
COc1ncccc1-c1cc(N2CC(c3nc4ccccc4n3C)C2)nc(C)n1 [Example 82, 2-(1-(6-(2-methoxypyridin-3-yl)-2-methylpyrimidin-4-yl)azetidin-3-yl)-1-methyl-1H-benzo[d]imidazole] | 27
CC(=O)Nc1ncccc1-c1cc(N2CC(c3nc4ccccc4n3C)C2)nc(C)n1 [Example 83, N-(3-(2-methyl-6-(3-(1-methyl-1H-benzo[d]imidazol-2-yl)azetidin-1-yl)pyrimidin-4-yl)pyridin-2-yl)acetamide] | 75
COc1nc(C)ccc1-c1cc(N2CC(c3nc4ccccc4n3C)C2)nc(C)n1 [Example 84, 2-(1-(6-(2-methoxy-6-methylpyridin-3-yl)-2-methylpyrimidin-4-yl)azetidin-3-yl)-1-methyl-1H-benzo[d]imidazole] | 27
Cc1ccc(-c2cc(N3CC(c4nc5ccccc5n4C)C3)nc(C)n2)c(F)n1 [Example 85, 2-(1-(6-(2-fluoro-6-methylpyridin-3-yl)-2-methylpyrimidin-4-yl)azetidin-3-yl)-1-methyl-1H-benzo[d]imidazole] | 8
Cc1nc(-c2ccncc2)cc(N2CC(c3nc4ccccc4n3C)C2)n1 [Example 86, 1-methyl-2-(1-(2-methyl-6-(pyridin-4-yl)pyrimidin-4-yl)azetidin-3-yl)-1H-benzo[d]imidazole] | 46
Cc1nc(-c2cccc(C(F)(F)F)n2)cc(N2CC(c3nc4ccccc4n3C)C2)n1 [Example 87, 1-methyl-2-(1-(2-methyl-6-(6-(trifluoromethyl)pyridin-2-yl)pyrimidin-4-yl)azetidin-3-yl)-1H-benzo[d]imidazole] | 1.3
Cc1nc(-c2ccccc2)cc(N2CC(c3nc4ccccc4n3C)C2)n1 [Example 88, 1-methyl-2-(1-(2-methyl-6-phenylpyrimidin-4-yl)azetidin-3-yl)-1H-benzo[d]imidazole] | 63
COc1ccccc1-c1cc(N2CC(c3nc4ccccc4n3C)C2)nc(C)n1 [Example 89, 2-(1-(6-(2-methoxyphenyl)-2-methylpyrimidin-4-yl)azetidin-3-yl)-1-methyl-1H-benzo[d]imidazole] | 63
Cc1nc(-c2ccccc2F)cc(N2CC(c3nc4ccccc4n3C)C2)n1 [Example 90, 2-(1-(6-(2-fluorophenyl)-2-methylpyrimidin-4-yl)azetidin-3-yl)-1-methyl-1H-benzo[d]imidazole] | 15
Cc1nc(-c2ccccc2OC(F)F)cc(N2CC(c3nc4ccccc4n3C)C2)n1 [Example 91, 2-(1-(6-(2-(difluoromethoxy)phenyl)-2-methylpyrimidin-4-yl)azetidin-3-yl)-1-methyl-1H-benzo[d]imidazole] | 22
Cc1nc(-c2ccccc2O)cc(N2CC(c3nc4ccccc4n3C)C2)n1 [Example 92, 2-(2-methyl-6-(3-(1-methyl-1H-benzo[d]imidazol-2-yl)azetidin-1-yl)pyrimidin-4-yl)phenol] | 30

Compound | Ki [nM]
Cc1nc(-c2ccccc2C(=O)O)cc(N2CC(c3nc4ccccc4n3C)C2)n1 [Example 93, 2-(2-methyl-6-(3-(1-methyl-1H-benzo[d]imidazol-2-yl)azetidin-1-yl)pyrimidin-4-yl)benzoic acid] | 19
Cc1ccc(-c2cc(N3CC(c4nc5ccccc5n4C)C3)nc(C)n2)nc1 [Example 94, 1-methyl-2-(1-(2-methyl-6-(5-methylpyridin-2-yl)pyrimidin-4-yl)azetidin-3-yl)-1H-benzo[d]imidazole] | 1
Cc1nc(-c2ccccn2)cc(N2CC(c3nc4ccccc4n3C)C2)n1 [Example 95, 1-methyl-2-(1-(2-methyl-6-(pyridin-2-yl)pyrimidin-4-yl)azetidin-3-yl)-1H-benzo[d]imidazole] | 1.8
COc1nc(-c2ccc(C)cn2)cc(N2CC(c3nc4ccccc4n3C)C2)n1 [Example 96, 2-(1-(2-methoxy-6-(5-methylpyridin-2-yl)pyrimidin-4-yl)azetidin-3-yl)-1-methyl-1H-benzo[d]imidazole] | 1.3
Cc1ccc(-c2cc(N3CC(c4nc5ccccc5n4C)C3)nc(C(F)(F)F)n2)nc1 [Example 97, 1-methyl-2-(1-(6-(5-methylpyridin-2-yl)-2-(trifluoromethyl)pyrimidin-4-yl)azetidin-3-yl)-1H-benzo[d]imidazole] | 0.9
Cc1cccc(-c2cc(N3CC(c4nc5ccccc5n4C)C3)nc(C)n2)n1 [Example 98, 1-methyl-2-(1-(2-methyl-6-(6-methylpyridin-2-yl)pyrimidin-4-yl)azetidin-3-yl)-1H-benzo[d]imidazole] | 5.5
Cc1nc(-c2ccc(Cl)cn2)cc(N2CC(c3nc4ccccc4n3C)C2)n1 [Example 99, 2-(1-(6-(5-chloropyridin-2-yl)-2-methylpyrimidin-4-yl)azetidin-3-yl)-1-methyl-1H-benzo[d]imidazole] | 1.1
COc1cccnc1-c1cc(N2CC(c3nc4ccccc4n3C)C2)nc(C)n1 [Example 100, 2-(1-(6-(3-methoxypyridin-2-yl)-2-methylpyrimidin-4-yl)azetidin-3-yl)-1-methyl-1H-benzo[d]imidazole] | 41
CC(=O)c1ccnc(-c2cc(N3CC(c4nc5ccccc5n4C)C3)nc(C)n2)c1 [Example 101, 1-(2-(2-methyl-6-(3-(1-methyl-1H-benzo[d]imidazol-2-yl)azetidin-1-yl)pyrimidin-4-yl)pyridin-4-yl)ethanone] | 31
CC(=O)c1ccc(-c2cc(N3CC(c4nc5ccccc5n4C)C3)nc(C)n2)nc1 [Example 102, 1-(6-(2-methyl-6-(3-(1-methyl-1H-benzo[d]imidazol-2-yl)azetidin-1-yl)pyrimidin-4-yl)pyridin-3-yl)ethanone] | 9
Cc1nc(-c2ccc(C#N)cn2)cc(N2CC(c3nc4ccccc4n3C)C2)n1 [Example 103, 6-(2-methyl-6-(3-(1-methyl-1H-benzo[d]imidazol-2-yl)azetidin-1-yl)pyrimidin-4-yl)nicotinonitrile] | 2.4
Cc1nc(-c2ncco2)cc(N2CC(c3nc4ccccc4n3C)C2)n1 [Example 104, 2-(2-methyl-6-(3-(1-methyl-1H-benzo[d]imidazol-2-yl)azetidin-1-yl)pyrimidin-4-yl)oxazole] | 20
Cc1nc(-c2nccs2)cc(N2CC(c3nc4ccccc4n3C)C2)n1 [Example 105, 2-(2-methyl-6-(3-(1-methyl-1H-benzo[d]imidazol-2-yl)azetidin-1-yl)pyrimidin-4-yl)thiazole] | 2.2
Cc1nc(-c2cccnn2)cc(N2CC(c3nc4ccccc4n3C)C2)n1 [Example 106, 1-methyl-2-{1-[2-methyl-6-(pyridazin-3-yl)pyrimidin-4-yl]azetidin-3-yl}-1H-benzimidazole] | 11
Cc1nc(N2CC(c3nc4ccccc4[nH]3)C2)cc(-n2nc(C)nc2C)n1 [Example 107, 2-(1-(6-(3,5-Dimethyl-1H-1,2,4-triazol-1-yl)-2-methylpyrimidin-4-yl)azetidin-3-yl)-1H-benzo[d]imidazole] | 5.8
Cc1nc(N2CC(c3nc4cccc(F)c4[nH]3)C2)cc(-n2nc(C)nc2C)n1 [Example 108, 2-(1-(6-(3,5-dimethyl-1H-1,2,4-triazol-1-yl)-2-methylpyrimidin-4-yl)azetidin-3-yl)-7-fluoro-1H-benzo[d]imidazole] | 19
Cc1nc(N2CC(c3nc4ccc(F)cc4[nH]3)C2)cc(-n2nc(C)nc2C)n1 [Example 109, 2-(1-(6-(3,5-dimethyl-1H-1,2,4-triazol-1-yl)-2-methylpyrimidin-4-yl)azetidin-3-yl)-6-fluoro-1H-benzo[d]imidazole] | 8
Cc1nc(N2CC(c3nc4cccc(C)c4[nH]3)C2)cc(-n2nc(C)nc2C)n1 [Example 110, 2-(1-(6-(3,5-dimethyl-1H-1,2,4-triazol-1-yl)-2-methylpyrimidin-4-yl)azetidin-3-yl)-7-methyl-1H-benzo[d]imidazole] | 17
